One molecule from patent US9532569B2 (INSTITUT NATIONAL DE LA RECHERCHE AGRONOMIQUE, priority 2012, dated 2017) can be followed below.

A short description of data set [1]: Stability in aqueous medium (UPLC, % nondegraded compound). It counts as physicochemical. The procedure:
The stability in aqueous medium of the compound (IIa) according to the invention and that of GR24 as comparative compound was evaluated in the following way.
Each compound was diluted in acetone (1 ml), then 50 μl of each solution were diluted with methanol (175 μl) and water (750 μl) so as to obtain a compound concentration of 50 μg/ml.
The aqueous solution thus obtained was incubated at 21° C. in HPLC vials.
Indanol (25 μl of a solution at 1 mg/ml in acetone) was added to each solution in order to serve as an internal standard.
The degradation of each compound over time was monitored by analysis of samples taken from the solution at various time intervals, by Ultra Performance Liquid Chromatograpy (UPLC) by means of an Acquity UPLC HSS C18 column (1.8 μm, 2.1×50 mm), eluted first of all with a solution of acetonitrile at 5% in water containing 0.1% of formic acid, for 0.5 min, then with a gradient of 5% to 100% of acetonitrile in water containing 0.1% of formic acid, for 6.5 min, and with 100% of acetonitrile containing 0.1% of formic acid for 3 min. The column was maintained at a temperature of 40° C., with a flow of 0.6 ml/min.
The compounds eluted from the column were detected with a photodiode array detector.
The relative amount of nondegraded compound in the solution was determined by comparison with the internal standard.
In a second experiment, the stability in aqueous medium of the compounds (IIa) and (IIIb) according to the invention, and that of GR24 as comparative compound, was evaluated according to the protocol described above.

In the next data set the test system is MRC5 cells. The data set is described as follows: In vitro cytotoxicity study on MRC5 cells (MTS). Format: cell-based, human. Here is the method: The cytotoxicity of the compound (IIa) according to the invention, and that of GR24 and of GR5 as comparative compounds, was evaluated in vitro, at concentrations of 10^−4 M and 10^−5 M, on MRC5 cells, in DMSO, in the following way.
MRC5 cells (human lung (fibroblasts) were cultured in Dulbecco's modified Eagle medium (DMEM) supplemented with: 25 mM of glucose, 10% (v/v) of fetal calf serum, 100 IU of penicillin, 100 μg/ml of streptomycin and 1.5 μg/ml of fungizone, and kept under 5% of CO2 at 37° C.
96-well plates were seeded with 2100 MRC5 cells per well in 200 μl of medium. After 24 hours, each of the compounds dissolved in DMSO was added for 72 hours, at a final concentration of 10^−4 M or 10^−5 M in a fixed volume of DMSO. The controls received an equal volume of DMSO.
The viable cell number was measured at 490 nm with the MTS reagent (Promega), and, for each compound, the concentration causing 50% inhibition of cell growth, IC50, was calculated.

In the next data set the test system is Phelipanche ramosa pv C. The data set is described as follows: Germinative activity on parasitic plants. It counts as in vivo. Particulars: counted after 4 days. Here is the method:
(§1) In this example, the germinative activity of the compounds in accordance with the invention (IIa) and (IIIb) and of the comparative compound GR24 was evaluated on the parasitic plants: Orobanche cumana, Orobanche minor, Striga hermonthica, Phelipanche ramosa (pv T and pv C).
(§2) The test protocol used was the following.
(§3) Two populations of Phelipanche ramosa were used in this study, pathovar (pv) C and T, described in the publication by Benharrat et al. (2005). Seeds of Phelipanche ramosa pathovar C were collected at Saint Martin de Fraigneau, France, on broomrapes parasitizing winter oilseed rape (Brassica napus L.) in 2005 and seeds of Phelipanche ramosa pathovar T were collected in Sarthe, France, on broomrapes developing on hemp (Cannabis sativa L.) in 2007.
(§4) The seeds are stored dry in the dark at 25° C.
(§5) The compounds to be studied were resuspended in acetone at 10 mmol·l^−1, then diluted with water to 1 mmol·l^−1 (water/acetone; v/v; 99/1). Dilutions of 1×10^−3 mol·l^−1 to 1×10^−15 mol·l^−1 were then prepared in a water/acetone mixture (v/v; 99/1). Seeds of parasitic plants were surface-sterilized according to the protocol described in the publication by Vieira Dos Santos et al. (2003), then resuspended in sterile water (10 g·l^−1) and distributed on a 96-well plate (in a proportion of 50 μl, i.e. approximately 100 seeds per well). After preconditioning (7 days, 21° C., in the dark, plate hermetically sealed, except for the seeds of S. hermonthica, which were preconditioned at 30° C.), the compounds to be studied were added and the volumes adjusted to 100 μl with water (water/acetone; v/v; 999/1).
(§6) In a plate, a range of concentrations from 10^−13 mol·l^−1 to 10^−6 mol·l^−1 was applied for GR24 and (IIa) and from 10^−12 to 10^−5 mol·l^−1 for (IIIb). Controls were carried out with a water/acetone mixture (v/v; 999/1) and without seeds. The plates were incubated so as to allow germination (21° C., in the dark or 30° C. for Striga hermonthica.). After 4 days, the seeds which had germinated were counted under a stereomicroscope (SZX10, Olympus). The seeds were considered to have germinated when the radicle was sticking out of the seed tegument. Each germination test was repeated at least 3 times. For each compound tested, dose-response curves (g=f(c), where g is the germination percentage and c the concentration (mol·l^−1)), and the EC50 (median effective concentration) were modeled on the basis of a 4-parameter logistic curve calculated with SigmaPlot® 10.0.
(§7) The percentages of maximum germination induced by the compounds tested for each parasitic plant were determined.

In the next data set the test system is Phelipanche ramosa pv T. The data set is described as follows: Germinative activity on parasitic plants. It counts as in vivo. To be noted: counted after 4 days. The procedure: as §1, §2, §3, §4, §5, §6, §7
For the next data set, the system named is Orobanche minor. The data set is described as follows: Germinative activity on parasitic plants. Format: in vivo. To be noted: counted after 4 days. The procedure: as §1, §2
(§8) Seeds of Orobanche cumana Wallr. were collected from broomrapes parasitizing sunflower (Helianthus annuus L.), at Longeville-sur-mer, France, in 2009; seeds of clover broomrape (Orobanche minor Sm.) from a parasite of red clover (Trifolium pratense L.) were obtained from Professor K. Yoneyama (Utsunomiya University, Japan).
as §4, §5, §6, §7

In a further data set the test system is Orobanche cumana. The experiment in a line: Germinative activity on parasitic plants. Format: in vivo. To be noted: counted after 4 days. The procedure: as §1, §2, §8, §4, §5, §6, §7
The next data set deals with Striga hermonthica. The data set is described as follows: Germinative activity on parasitic plants. It counts as in vivo. Particulars: counted after 4 days, 30° C. Here is the method:
as §1, §2
Seeds of Striga hermonthica (Del.) Benth were collected at Gadarif, Eastern Sudan, in 1999.
as §4, §5
as §6, with “The seeds were considered to have germinated when the radicle was sticking out of the seed tegument. Each germination test was repeated at least 3 times.” left out
as §7

On to `CC1=C(C)C(Sc2ccc(Cl)cc2)OC1=O` (stereo not shown) [Compound (IIa), 5-((4-chlorophenyl)thio)-3,4-dimethylfuran-2(5H)-one], for which the “chemical stability in aqueous solution (% of nondegraded compound as a function of incubation time)” value in data set [1] (50 μg/ml of compound in methanol/water: 1/4, pH 6.7, 21° C., FIG. 1) was “very high chemical stability in aqueous solution, much higher than that of GR24”; in data set [1] (second experiment, longer incubation times, 50 μg/ml in methanol/water: 1/4, pH 6.7, 21° C., FIG. 2), “very high chemical stability in aqueous solution, much higher than that of GR24”. Also, in the data set with MRC5 cells (Homo sapiens, MRC5, 10^−4M, 72 hours, ± standard error, read-out: Percentage inhibition of MRC5 cell growth), the inhibition at 100 µM was determined as 11 ± 5%. The inhibition at 10 µM in the data set with MRC5 cells (Homo sapiens, MRC5, 10^−5M, 72 hours, ± standard error, read-out: Percentage inhibition of MRC5 cell growth) was found to be 7 ± 4%. Further, the “cytotoxicity compared with GR5 and GR24” value with MRC5 cells (concentration of 10^−4 M) was “cytotoxicity which is much lower than that of the comparative compounds GR5 and GR24”. For the same molecule, the “Percentage of maximum germination induced” value is on record as 27 ± 4% in the data set on Phelipanche ramosa pv C; 72 ± 2% with Phelipanche ramosa pv T; “no (no significant germination compared to the negative control (<2%))” in the data set on Orobanche minor; “no (no significant germination compared to the negative control (<2%))” in the data set with Orobanche cumana; “no (no significant germination compared to the negative control (<2%))” in the data set with Striga hermonthica.
